Laboratory results as given in patent US20050026189A1, “Microbial operons” (priority 2003, published 2005).
Converted amounts (≈) assume the structure as drawn. Like-named read-outs stand apart in the source and are kept apart here. Positions of bridges follow the written chain, without caps; N, C: chain ends. Non-standard residues stand in square brackets, D forms with d. Residues, ends and D or L forms follow the SMILES beside them. *: point of attachment. Ileψ(thiazoline)Cys = CC[C@H](C)[C@H](N)C1=N[C@H](C(=O)*)CS1; dOrn = NCCC[C@@H](N)C(=O)O

Columns and labels:
[1] = test system: Staphylococcus aureus cells transcribing antisense to gyrB; assay: Antibiotic potency in Staphylococcus aureus cells with and without xylose-induced antisense to the Beta subunit of DNA gyrase (FIG. 10); format: cell-based; conditions: 12 mM xylose versus 0 mM xylose; antisense to β subunit of gyrase
Experimental: Antibiotics of various chemical classes and modes of action were purchased from chemical suppliers, for example Sigma Chemicals (St. Louis, Mo). Stock solutions were prepared by dissolving each antibiotic in an appropriate aqueous solution based on information provided by the manufacturer. The final working solution of each antibiotic contained no more than 0.2% (w/v) of any organic solvent.
To determine its potency against a bacterial strain containing an antisense nucleic acid comprising a nucleotide sequence complementary to the nucleotide sequence encoding the Beta subunit of DNA gyrase (which is required for proliferation) under the control of a xylose inducible promoter, each antibiotic was serially diluted two- or three-fold in growth medium supplemented with the appropriate antibiotic for maintenance of the antisense construct. At least ten dilutions were prepared for each antibiotic.
Aliquots (25 μL) of each dilution were transferred to discrete wells of a 384-well microplate (the assay plate) using a multi-channel pipette. Quadruplicate wells were used for each dilution of an antibiotic under each treatment condition (plus and minus inducer). Each assay plate contained twenty wells for cell growth controls (growth medium, no antibiotic), ten wells for each treatment (plus and minus inducer, xylose, in this example). Half the assay plate contained induced cells (in this example Staphylococcus aureus cells) and appropriate concentrations of inducer (xylose, in this example) to maintain the state of induction while the other half of the assay plate contained non-induced cells maintained in the absence of inducer.
Cells of a bacterial clone containing a construct in which transcription of antisense comprising a nucleotide sequence complementary to the sequence encoding the Beta subunit of DNA gyrase under the control of the xylose inducible promoter (S1M10000001F08) were grown into exponential growth (OD600 0.2 to 0.3) and then diluted 1:100 into fresh medium containing either 12 mM or 0 mM inducer (xylose). These cultures were incubated at 37° C. for 2.5 hr. The presence of inducer (xylose) in the medium initiates and maintains production of antisense RNA from the antisense construct. After a 2.5 hr incubation, induced and non-induced cells were respectively diluted into an assay medium containing an appropriate concentration of the antibiotic for the maintenance of the antisense construct. In addition, medium used to dilute induced cells was supplemented with 24 mM xylose so that addition to the assay plate would result in a final xylose concentration of 12 mM. The cells were diluted to a final OD600 value of 0.0004.
Induced and non-induced cell suspensions were dispensed (25 μl/well) into the appropriate wells of the assay plate as discussed previously. The plate was then loaded into a plate reader and incubated at constant temperature while cell growth was monitored in each well by the measurement of light scattering at 595 nm. Growth was monitored every 5 minutes until the cell culture attained a stationary growth phase. For each concentration of antibiotic, a percentage inhibition of growth was calculated at the time point corresponding to mid-exponential growth for the associated control wells (no antibiotic, plus or minus xylose). For each antibiotic and condition (plus or minus xylose), plots of percent inhibition versus Log of antibiotic concentration were generated and IC50s, determined.

[2] = test system: E. coli transcribing antisense RNA to rplL and rplJ (AS-rplL/J); assay: microbe, parasite or virus in culture; format: cell-based; conditions: for Fold Increase in Sensitivity: IC50 without IPTG versus IC50 with 400 μM IPTG; for Sensitivity Increased?: statistically significant decrease in the IC50 value in the presence of inducer (IPTG); for IC50: Escherichia coli
Experimental: The effectiveness of the above assays was validated using proliferation-required genes from E. coli which were identified using procedures similar to those described above. Antibiotics of various chemical classes and modes of action were purchased from Sigma Chemicals (St. Louis, Mo.). Stock solutions were prepared by dissolving each antibiotic in an appropriate aqueous solution based on information provided by the manufacturer. The final working solution of each antibiotic contained no more than 0.2% (w/v) of any organic solvent. To determine their potency against a bacterial strain engineered for transcription of an antisense comprising a nucleotide sequence complementary to a proliferation-required 50S ribosomal protein, each antibiotic was serially diluted two- or three-fold in growth medium supplemented with the appropriate antibiotic for maintenance of the antisense construct. At least ten dilutions were prepared for each antibiotic. 25 μL aliquots of each dilution were transferred to discrete wells of a 384-well microplate (the assay plate) using a multi-channel pipette. Quadruplicate wells were used for each dilution of an antibiotic under each treatment condition (plus and minus inducer). Each assay plate contained twenty wells for cell growth controls (growth medium replacing antibiotic), ten wells for each treatment (plus and minus inducer, in this example IPTG). Assay plates were usually divided into the two treatments: half the plate containing induced cells and an appropriate concentrations of inducer (in this example IPTG) to maintain the state of induction, the other half containing non-induced cells in the absence of IPTG.
Cells for the assay were prepared as follows. Bacterial cells containing a construct, from which transcription of antisense nucleic acid comprising a nucleotide sequence complementary to rplL and rplJ (AS-rplL/J), which encode proliferation-required 50S ribosomal subunit proteins, is inducible in the presence of IPTG, were grown into exponential growth (OD600 0.2 to 0.3) and then diluted 1:100 into fresh medium containing either 400 μM or 0 μM inducer (IPTG). These cultures were incubated at 37° C. for 2.5 hr. After a 2.5 hr incubation, induced and non-induced cells were respectively diluted into an assay medium at a final OD600 value of 0.0004. The medium contained an appropriate concentration of the antibiotic for the maintenance of the antisense construct. In addition, the medium used to dilute induced cells was supplemented with 800 μM IPTG so that addition to the assay plate would result in a final IPTG concentration of 400 μM. Induced and non-induced cell suspensions were dispensed (25 μl/well) into the appropriate wells of the assay plate as discussed previously. The plate was then loaded into a plate reader, incubated at constant temperature, and cell growth was monitored in each well by the measurement of light scattering at 595 nm. Growth was monitored every 5 minutes until the cell culture attained a stationary growth phase. For each concentration of antibiotic, a percentage inhibition of growth was calculated at the time point corresponding to mid-exponential growth for the associated control wells (no antibiotic, plus or minus IPTG). For each antibiotic and condition (plus or minus IPTG), a plot of percent inhibition versus log of antibiotic concentration was generated and the IC50 determined.

Molecule | potency in induced cells as compared to uninduced cells [1] | Fold Increase in Sensitivity [2] | Sensitivity Increased? [2] | also measured
CO/N=C(\C(=O)N[C@@H]1C(=O)N2C(C(=O)O)=C(COC(C)=O)CS[C@H]12)c1csc(N)n1 [Cefotaxime] | not significantly different | 1 Fold | No | 
CCC[C@@H]1C[C@@H](C(=O)N[C@@H]([C@H]2O[C@H](SC)[C@H](O)[C@@H](O)[C@H]2O)[C@@H](C)O)N(C)C1 [Lincomycin] | not significantly different | 145 Fold | Yes | 
C[C@H]1c2cccc(O)c2C(=O)C2=C(O)[C@]3(O)C(=O)C(C(N)=O)=C(O)[C@@H](N(C)C)[C@@H]3[C@@H](O)[C@@H]21 [Doxycycline] |  | 15 Fold |  | 
CC[C@H](C)[C@H](N)C1=N[C@H](C(=O)N[C@@H](CC(C)C)C(=O)N[C@H](CCC(=O)O)C(=O)N[C@H](C(=O)N[C@H]2CCCCNC(=O)[C@H](CC(N)=O)NC(=O)[C@@H](CC(=O)O)NC(=O)[C@H](Cc3cnc[nH]3)NC(=O)[C@@H](Cc3ccccc3)NC(=O)[C@H]([C@@H](C)CC)NC(=O)[C@@H](CCCN)NC2=O)[C@@H](C)CC)CS1 [Bacitracin] ({Ileψ(thiazoline)Cys}-L[dE]IK[dOrn]I[dF]H[dD]N; lactam 4-C) |  | 1 Fold | No | 
[H]/N=C(/N)N[C@H]1[C@H](O)[C@@H](O)[C@H](O[C@@H]2O[C@@H](C)[C@](O)(C=O)[C@H]2O[C@@H]2O[C@@H](CO)[C@H](O)[C@@H](O)[C@@H]2NC)[C@@H](N/C(N)=N\[H])[C@@H]1O [Streptomycin] |  | 70 Fold | Yes | 
CO[C@@]1(NC(=O)Cc2cccs2)C(=O)N2C(C(=O)O)=C(COC(N)=O)CS[C@@H]21 [Cefoxitin] | not significantly different | 1 Fold | No | 
CN(C)c1ccc(O)c2c1C[C@H]1C[C@H]3[C@H](N(C)C)C(O)=C(C(N)=O)C(=O)[C@@]3(O)C(O)=C1C2=O [Minocycline] |  | 172 Fold |  | 
NC[C@H]1O[C@H](O[C@H]2[C@H](O)[C@@H](O[C@H]3O[C@H](CO)[C@@H](O)[C@H](N)[C@H]3O)[C@H](N)C[C@@H]2N)[C@H](N)C[C@@H]1O [Tobramycin] | not significantly different | 51 Fold | Yes | 
CC(=O)O[C@H]1C[C@@]2(C)[C@@H](C[C@@H](O)[C@H]3[C@@]4(C)CC[C@@H](O)[C@@H](C)[C@@H]4CC[C@@]32C)/C1=C(\CCC=C(C)C)C(=O)O [Fusidic acid] | not significantly different | 94 Fold | Yes | 
O=C(N[C@H](CO)[C@H](O)c1ccc([N+](=O)[O-])cc1)C(Cl)Cl [Chloramphenicol] |  | 307 Fold | Yes | 
COc1cc(Cc2cnc(N)nc2N)cc(OC)c1OC [Trimethoprim] | not significantly different |  |  | 
Gentamicin |  | 141 Fold | Yes | IC50 (+IPTG) ([2]; induced cells, 400 μM IPTG): 0.01919 µg/mL; IC50 (−IPTG) ([2]; non-induced cells, 0 μM IPTG): 2.715 µg/mL
CC1COc2c(N3CCN(C)CC3)c(F)cc3c(=O)c(C(=O)O)cn1c23 (stereo not drawn) [Ofloxacin] |  | 1 Fold |  | 
CN[C@H](CC(C)C)C(=O)N[C@H]1C(=O)N[C@@H](CC(N)=O)C(=O)N[C@H]2C(=O)N[C@H]3C(=O)N[C@H](C(=O)N[C@H](C(=O)O)c4cc(O)cc(O)c4-c4cc3ccc4O)[C@H](O)c3ccc(c(Cl)c3)Oc3cc2cc(c3O[C@@H]2O[C@H](CO)[C@@H](O)[C@H](O)[C@H]2O[C@H]2C[C@](C)(N)[C@H](O)[C@H](C)O2)Oc2ccc(cc2Cl)[C@H]1O [Vancomycin] | not significantly different | 2 Fold | No | IC50 ([2]; read-out: IC50 (+IPTG)): 72.5 µg/mL (≈ 50.1 µM); IC50 ([2]; read-out: IC50 (−IPTG)): 145 µg/mL (≈ 100 µM)
CN(C)[C@@H]1C(O)=C(C(N)=O)C(=O)[C@@]2(O)C(O)=C3C(=O)c4c(O)cccc4[C@@](C)(O)[C@H]3C[C@@H]12 [Tetracycline] |  | 109 Fold |  | 
CN[C@@H]1[C@H](O)[C@H](NC)[C@H]2O[C@@]3(O)C(=O)C[C@@H](C)O[C@H]3O[C@@H]2[C@H]1O [Spectinomycin] |  |  | Yes | 
